According to patent US11566049B2, “Cyclic peptides and uses thereof” (LATERAL IP PTY LTD, priority 2018, dated 2023):
Entries after “also recorded” stand apart in the source; their conditions may differ. Positions of bridges follow the written chain, without caps; N, C: chain ends. No end group written: not given here.

Tests used:
[1] = test system: Lamina I or II neurons in the dorsal horn; assay: whole-cell patch clamp recording in spinal cord slices with intact dorsal root afferents from Chung models (Example 1); type: cell-based, rat
Procedure: An in vitro spinal cord slice with intact dorsal root afferents combined with single-cell whole-cell patch claim electrophysiological recording techniques was used to assess the electrophysiological properties of SEQ ID NO:26 (SCRSRPVESSC; also referred to herein as LAT9993).
Spinal cord slices were prepared from models of neuropathic pain (Chung models; as previously described in Chung et al., Methods Mol Med. 2004; 99:35-45, the contents of which are incorporated herein by reference) and tested against the peptide of SEQ ID NO:26. Chung model rats, aged 8 to 12 weeks, were housed in an air-conditioned room on a 12 hour light/dark cycle with food and water available ad libitum. The rats were terminally anaesthetized using isofluorane and decapitated. […]
Whole-cell recordings were performed at 34-35° C. from Lamina I or II neurons in the dorsal horm of the spinal cord slices using Axopatch 1D and/or Multiclamp 700B amplifies and using the “blind” version of the patch-clamp technique. […] Biocytin was included in the patch solution to allow post-recording identification of the recorded neurons. The peptide of SEQ ID NO:26 was applied to the recorded tissue in the tissue bath at concentrations between 0.5 μM and 5 μM.

Chung model rats = assay: Chung model of neuropathic pain, paw withdrawal (Example 2); type: in vivo, rat; conditions: 10 mg/kg orally or intramuscular; 1, 2 and 4 hours post-dosing; n=8
Procedure: The peptide of SEQ ID NO:26 was administered at 10 mg/kg either orally (PQ) or by intramuscular (IM) injection to Chung model rats and pain was assessed by paw withdrawal. Pre-dosing control; Vehicle: 5% DMSO in PBS. *** p<0.001, compared to the same time points in the Vehicle control group; #p<0.05, compared to SEQ ID NO:26 PO group at the same time point. n=8 for each group.
An […] Chung model of chronic nerve constriction in rats (Chung et al., Methods Mol. Med. 2004; 99:35-45) was used to assess the effect of SEQ ID NO:26 on neuropathic pain. SEQ ID NO:26 was administered at 10 mg/kg either orally or by intramuscular injection to Chung model rats and pain was assessed by paw withdrawal.

SCRSRPVESSC (disulfide 2-11 (inferred); listed as Homo sapiens) [SEQ ID NO:26, cyclic peptide of formula (I) formed by a disulphide bond between the two cysteine residues]
neuronal input resistance (effect in words) ([1]; 1 μM (FIG. 2), bath applied): reduction in neuronal input resistance; also recorded: reversible on washout | excitatory postsynaptic potentials (EPSPs) ([1]; 5 μM (FIG. 3), 0.1 Hz, 1 Hz): suppressed | pain as measured by paw withdrawal threshold (PWT) (Chung model rats): significantly reduced pain
